Each block holds one compound with its values, some of them ahead of it. The source made the active and inactive calls. The rule behind the calls is not given here.
Legend:
Type in all cases: functional, cell-based
MCF7 [1] = test: Induction of cell death in cisplatin-resistant human MCF7-CR cells assessed as reduction in cell volume at 10 uM after 24 hrs
MCF7 [2] = test: Antiproliferative activity against human cisplatin resistant human MCF7-CR cells assessed as reduction in cell viability at 15 uM after 24 hrs by MTT assay relative to control
MCF7 [3] = test: Synergistic antiproliferative activity against cisplatin-resistant human MCF7-CR cells assessed as reduction in cell viability in presence of cisplatin after 24 hrs by MTT assay; conditions: MCF7, 24 h
MCF7 [4] = test: Synergistic antiproliferative activity against cisplatin-resistant human MCF7-CR cells assessed as reduction in cell viability in presence of taxol after 24 hrs by MTT assay; conditions: MCF7, 24 h
MCF7 [5] = test: Inhibition of colony formation in cisplatin-resistant human MCF7-CR cells at 5 to 25 uM after 7 days; conditions: dose 5-25 µM, time 7.0 day, DDE = dose-dependent effect
MCF7 [6] = test: Antiproliferative activity against human MCF7 cells assessed as reduction in cell viability at 15 uM after 24 hrs by MTT assay relative to control
MCF7 [7] = test: Antiproliferative activity against cisplatin-resistant human MCF7-CR cells transfected with MBR C3 vector assessed as reduction in cell viability after 24 hrs by MTT assay; conditions: MCF7, 24 h
MCF7 [8] = test: Antiproliferative activity against cisplatin-resistant human MCF7-CR cells assessed as reduction in cell viability after 24 hrs by MTT assay; conditions: MCF7, 24 h
MCF7 [9] = test: Antiproliferative activity against cisplatin-resistant human MCF7-CR cells transfected with MBR C2 vector assessed as reduction in cell viability after 24 hrs by MTT assay; conditions: MCF7, 24 h
MCF7 [10] = test: Synergistic antiproliferative activity against cisplatin-resistant human MCF7-CR cells assessed as reduction in cell viability in presence of ABT737 after 24 hrs by MTT assay; conditions: MCF7, 24 h
MCF7 [11] = test: Induction of apoptosis in cisplatin-resistant human MCF7-CR cells assessed as decrease in BCL2 protein expression at 5 to 25 uM after 16 hrs by western blot analysis; conditions: dose 5-25 µM, DDE = dose-dependent effect
MCF7 [12] = test: Antiproliferative activity against cisplatin-resistant human MCF7-CR cells transfected with empty vector assessed as reduction in cell viability after 24 hrs by MTT assay; conditions: MCF7, 24 h
MCF7 [13] = test: Antiproliferative activity against human MCF7 cells transfected with MBR C3 vector assessed as reduction in cell viability after 24 hrs by MTT assay; conditions: MCF7, 24 h
MCF7 [14] = test: Antiproliferative activity against human MCF7 cells transfected with empty vector assessed as reduction in cell viability after 24 hrs by MTT assay; conditions: MCF7, 24 h
MCF7 [15] = test: Induction of cell death in human MCF7 cells assessed as reduction in cell volume at 10 uM after 24 hrs
MCF7 [16] = test: Inhibition of colony formation in human MCF7 cells at 5 to 25 uM after 7 days; conditions: dose 5-25 µM, time 7.0 day, DDE = dose-dependent effect
MCF7 [17] = test: Antiproliferative activity against human MCF7 cells cultured as 3D-spheroids assessed as reduction in cell viability at 5 to 25 uM after 24 hrs by alamar blue assay; conditions: dose 5-25 µM, DDE = dose-dependent effect
MCF7 [18] = test: Induction of apoptosis in cisplatin-resistant human MCF7-CR cells assessed as decrease in BCLXL protein expression at 5 to 25 uM after 16 hrs by western blot analysis; conditions: dose 5-25 µM
MCF7 [19] = test: Antiproliferative activity against human MCF7 cells transfected with BCLXL C5 vector assessed as reduction in cell viability after 24 hrs by MTT assay; conditions: MCF7, 24 h
MCF7 [20] = test: Antiproliferative activity against cisplatin-resistant human MCF7-CR cells cultured as 3D-spheroids assessed as reduction in cell viability at 5 to 25 uM after 24 hrs by alamar blue assay; conditions: dose 5-25 µM, DDE = dose-dependent effect
MCF7 [21] = test: Induction of cell death in cisplatin-resistant human MCF7-CR cells assessed as round cell morphology at 10 uM after 24 hrs
MCF7 [22] = test: Induction of apoptosis in cisplatin-resistant human MCF7-CR cells assessed as increase in release of cytochrome C in cytosol expression at 10 to 25 uM after 16 hrs by western blot analysis; conditions: dose 10-25 µM, DDE = dose-dependent effect
MCF7 [23] = test: Antiproliferative activity against human MCF7 cells assessed as reduction in cell viability after 24 hrs by MTT assay; conditions: MCF7, 24 h
MCF7 [24] = test: Induction of cell death in human MCF7 cells assessed as round cell morphology at 10 uM after 24 hrs

- EC50 (MCF7 [3]): 9.12 µM
- EC50 (MCF7 [4]): 3.55 µM
- EC50 (MCF7 [7]): 6.31 µM
- EC50 (MCF7 [8]): 21.4 µM
- EC50 (MCF7 [9]): 5.73 µM
- EC50 (MCF7 [10]): 0.53 µM
- EC50 (MCF7 [12]): 29.4 µM
- EC50 (MCF7 [13]): 3.03 µM
- EC50 (MCF7 [14]): 14.2 µM
- EC50 (MCF7 [19]): 10.2 µM
- EC50 (MCF7 [23]): 6.3 µM
SMILES: Oc1ccccc1-c1nc(-c2ccccc2)c2cc(Cl)ccc2n1
- Activity (MCF7 [1]): Active
- Activity (MCF7 [2]): Active
- Activity (MCF7 [5]): Dde
- Activity (MCF7 [6]): Active
- Activity (MCF7 [11]): Dde
- Activity (MCF7 [15]): Active
- Activity (MCF7 [16]): Dde
- Activity (MCF7 [17]): Dde
- Activity (MCF7 [18]): Active
- Activity (MCF7 [20]): Dde
- Activity (MCF7 [21]): Active
- Activity (MCF7 [22]): Dde
- Activity (MCF7 [24]): Active

SMILES: COc1ccc(-c2nc(-c3ccccc3)c3cc(Cl)ccc3n2)c(F)c1
- Activity (MCF7 [2]): Active
- Activity (MCF7 [6]): Active

- EC50 (MCF7 [3]): 4.89 µM
- EC50 (MCF7 [4]): 1.23 µM
- EC50 (MCF7 [7]): 5.19 µM
- EC50 (MCF7 [8]): 5.44 µM
- EC50 (MCF7 [9]): 5.04 µM
- EC50 (MCF7 [10]): 0.29 µM
- EC50 (MCF7 [12]): 22.4 µM
- EC50 (MCF7 [13]): 2.96 µM
- EC50 (MCF7 [14]): 8.62 µM
- EC50 (MCF7 [19]): 6.87 µM
- EC50 (MCF7 [23]): 5.02 µM
SMILES: Fc1cc(-c2nc(-c3ccccc3)c3cc(Cl)ccc3n2)ccc1Br
- Activity (MCF7 [1]): Active
- Activity (MCF7 [2]): Active
- Activity (MCF7 [5]): Dde
- Activity (MCF7 [6]): Active
- Activity (MCF7 [11]): Dde
- Activity (MCF7 [15]): Active
- Activity (MCF7 [16]): Dde
- Activity (MCF7 [17]): Dde
- Activity (MCF7 [18]): Active
- Activity (MCF7 [20]): Dde
- Activity (MCF7 [21]): Active
- Activity (MCF7 [22]): Dde
- Activity (MCF7 [24]): Active

- EC50 (MCF7 [8]): 4.39 µM
SMILES: CN(C)CC[C@H](CSc1ccccc1)Nc1ccc(S(=O)(=O)NC(=O)c2ccc(N3CCN(Cc4ccccc4-c4ccc(Cl)cc4)CC3)cc2)cc1[N+](=O)[O-] [ABT 737]

SMILES: Cc1ccc(-c2nc(-c3ccccc3)c3cc(Cl)ccc3n2)cc1
- Activity (MCF7 [2]): Active
- Activity (MCF7 [6]): Active

- EC50 (MCF7 [8]): 44.7 µM
SMILES: CC(=O)O[C@H]1C(=O)[C@@]2(C)[C@H]([C@H](OC(=O)c3ccccc3)[C@]3(O)C[C@H](OC(=O)[C@H](O)[C@@H](NC(=O)c4ccccc4)c4ccccc4)C(C)=C1C3(C)C)[C@]1(OC(C)=O)CO[C@@H]1C[C@@H]2O [PACLITAXEL]

SMILES: CC(C)(C)c1ccc(-c2nc(-c3ccccc3)c3cc(Cl)ccc3n2)cc1
- Activity (MCF7 [2]): Active
- Activity (MCF7 [6]): Active

SMILES: CCOc1cc(-c2nc(-c3ccccc3)c3cc(Cl)ccc3n2)ccc1OC
- Activity (MCF7 [2]): Active
- Activity (MCF7 [6]): Active

SMILES: Oc1cccc(-c2nc(-c3ccccc3)c3cc(Cl)ccc3n2)c1O
- Activity (MCF7 [2]): Active
- Activity (MCF7 [6]): Active

SMILES: CCOc1ccc(-c2nc(-c3ccccc3)c3cc(Cl)ccc3n2)cc1
- Activity (MCF7 [2]): Active
- Activity (MCF7 [6]): Active

SMILES: FC(F)(F)c1ccc(-c2nc(-c3ccccc3)c3cc(Cl)ccc3n2)cc1
- Activity (MCF7 [2]): Active
- Activity (MCF7 [6]): Active

SMILES: CCCCOc1ccc(-c2nc(-c3ccccc3)c3cc(Cl)ccc3n2)cc1
- Activity (MCF7 [2]): Active
- Activity (MCF7 [6]): Active

Source: ChEMBL document CHEMBL5143664, “New synthetic phenylquinazoline derivatives induce apoptosis by targeting the pro-survival members of the BCL-2 family” (Bioorg Med Chem Lett, 2022)
